# According to PubChem BioAssay (NCI):
#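 Interpolation was linear, between the two tested concentrations surrounding the appropriate level; five concentrations were tested over 48 hours in 96-well plates. TGI marks complete inhibition of growth.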
# Assays:
# Experiment in all cases: DTP human tumour cell line panel, 48 h
# HCC-2998 colon = tested on: HCC-2998 colon
# NCI-H460 lung = tested on: NCI-H460 lung
# LOX IMVI melanoma = tested on: LOX IMVI melanoma
# OVCAR-8 ovarian = tested on: OVCAR-8 ovarian
# SK-MEL-28 melanoma = tested on: SK-MEL-28 melanoma
# SK-OV-3 ovarian = tested on: SK-OV-3 ovarian
# 786-0 renal = tested on: 786-0 renal
# HOP-92 NSCLC = tested on: HOP-92 NSCLC
# HCT-116 colon = tested on: HCT-116 colon
# HCT-15 colon = tested on: HCT-15 colon
# KM12 colon = tested on: KM12 colon
# UO-31 renal = tested on: UO-31 renal
# PC-3 prostate = tested on: PC-3 prostate
# NCI/ADR-RES ovarian = tested on: NCI/ADR-RES ovarian
# MDA-MB-231 breast = tested on: MDA-MB-231 breast
Compound,TGI (HCC-2998 colon) [µM],TGI (NCI-H460 lung) [µM],TGI (LOX IMVI melanoma) [µM],TGI (OVCAR-8 ovarian) [µM],TGI (SK-MEL-28 melanoma) [µM],TGI (SK-OV-3 ovarian) [µM],TGI (786-0 renal) [µM],TGI (HOP-92 NSCLC) [µM],TGI (HCT-116 colon) [µM],TGI (HCT-15 colon) [µM],TGI (KM12 colon) [µM],TGI (UO-31 renal) [µM],TGI (PC-3 prostate) [µM],TGI (NCI/ADR-RES ovarian) [µM],TGI (MDA-MB-231 breast) [µM]
COc1ccc2c(c1)[n+]([O-])c(/C(C)=N/NC(=O)c1ccccc1O)c(C)[n+]2[O-],> 100,> 100,> 100,> 100,> 100,> 100,> 100,> 100,> 100,> 100,> 100,> 100,–,–,–
CN1CC2=C(NC(=S)NC2c2ccccc2Cl)/C(=C/c2ccccc2Cl)C1 (stereo unspecified),> 100,> 100,> 100,> 100,> 100,> 100,> 100,99.1,> 100,> 100,> 100,93.1,> 100,> 100,> 100
CCN(CC)Cc1cc(Nc2ccnc3ccc4nn(C)nc4c23)ccc1O,26.4,22.5,21.5,50.7,27.4,57.7,49.5,–,21.5,43.8,25.9,54,–,–,–
Cc1nc2c3c(ccc2[nH]c1=O)C(=O)c1ccccc1C3=O,> 100,> 100,> 100,> 100,> 100,> 100,> 100,> 100,> 100,> 100,> 100,> 100,–,–,–
CC(C)c1ccc(/C=C/c2cc(C(=O)NNC(=O)NC3CCCCC3)nc(=S)[nH]2)cc1,> 100,> 100,> 100,> 100,> 100,> 100,> 100,> 100,> 100,> 100,> 100,> 100,–,–,–
O=[N+]([O-])C=C1c2ccccc2-c2ccccc21,30.6,38.9,30.9,34.2,31.1,–,30.3,–,17.5,38.7,31.7,28.5,–,–,–
O=C(O)c1ccc([C@@H]2C(=O)N(O)[C@@H]3C=CC[C@@H]32)cc1,> 100,–,> 100,> 100,> 100,> 100,> 100,–,–,> 100,> 100,> 100,–,–,–
CC(C)C(Sc1nc(-c2ccccc2)c(-c2ccccc2)[nH]1)c1n[nH]c(=S)n1-c1ccccc1 (stereo unspecified),46,> 100,35.4,> 100,70.2,> 100,> 100,72,> 100,> 100,30.5,57.2,–,–,–
COC(=O)C(c1ccc(OC)cc1)N1C(=O)[C@@H](NC(=O)c2ccccc2)[C@H]1[C@@H](C)O (stereo partly specified),> 100,> 100,> 100,> 100,> 100,> 100,> 100,> 100,> 100,> 100,> 100,> 100,–,–,–
O=C(O)c1c2c(cc3c(=O)cc(-c4ccccc4)oc13)CCCC2,> 100,> 100,> 100,> 100,> 100,> 100,> 100,> 100,> 100,> 100,> 100,> 100,–,–,–
Cc1ccc(-c2nnc3s/c(=C\c4ccc(N(C)C)cc4)c(=O)n23)cc1,> 100,> 100,> 100,> 100,> 100,> 100,> 100,> 100,> 100,–,> 100,> 100,–,–,–
CCOC(=O)C1(N)CC1,> 100,> 100,> 100,> 100,> 100,–,> 100,> 100,> 100,> 100,> 100,> 100,> 100,> 100,> 100
COc1ccccc1NC(=O)CC(=O)N1N=C(c2ccccc2)C(N=Nc2ccc(Cl)cc2)C1=O (stereo unspecified),> 100,> 100,> 100,> 100,> 100,51.8,37,–,> 100,> 100,> 100,52.4,–,–,–
COc1ccc(/C=C/C(=O)c2sc(-c3cccnc3)nc2C)cc1,> 100,> 100,> 100,> 100,> 100,> 100,> 100,> 100,–,> 100,44.5,> 100,–,–,–
COc1cc(CNc2cnc3ccc(N)cc3n2)cc(OC)c1OC,> 100,> 100,> 100,> 100,> 100,> 100,> 100,> 100,> 100,> 100,> 100,> 100,–,–,–
C#CCOCn1cc(C)c(=O)[nH]c1=O,> 100,> 100,> 100,> 100,> 100,> 100,> 100,–,> 100,> 100,> 100,> 100,> 100,> 100,> 100
CC(=O)NNc1nc(C)c(C(=O)/C=C/c2ccc(Cl)c(Cl)c2)s1,> 100,> 100,> 100,> 100,> 100,> 100,> 100,> 100,–,> 100,> 100,> 100,–,–,–
NC(N)=NS(=O)(=O)c1ccc(NC(=O)c2cccc3c(N)c4ccccc4nc23)cc1,> 100,> 100,> 100,> 100,> 100,> 100,> 100,–,> 100,> 100,> 100,> 100,–,–,–
COc1ccc(/C=C2\CCC(CCN3CCOCC3)C2=O)cc1 (stereo unspecified),> 100,> 100,> 100,> 100,> 100,–,> 100,> 100,> 100,> 100,> 100,> 100,–,–,–
COC(=O)C(=O)C(/C(=N/N)C(=O)Nc1ccccc1C(N)=O)c1nc2ccc([N+](=O)[O-])cc2[nH]c1=O (stereo unspecified),> 100,> 100,> 100,> 100,> 100,–,> 100,–,> 100,> 100,> 100,> 100,–,–,–
CN(C)C(=NC#N)N(Cc1ccccc1)Cc1ccccc1,> 100,34,> 100,> 100,> 100,> 100,> 100,> 100,> 100,30.1,> 100,> 100,–,–,–
O=C(O)CCN(CCCN(CCC(=O)O)CCC(=O)O)CCC(=O)O,> 100,> 100,> 100,> 100,> 100,> 100,> 100,> 100,> 100,> 100,> 100,–,–,–,–
CCCCCCCCCCOC(=O)NCCC,76.8,65.9,36.3,> 100,> 100,> 100,> 100,48.1,–,48.4,> 100,50.6,–,–,–
CCOC(=O)C1SC(=Nc2ccc(Cl)cc2Cl)N=C1C (stereo unspecified),> 100,> 100,> 100,> 100,> 100,–,> 100,62.3,> 100,> 100,> 100,> 100,–,–,–
CN(/N=C\c1ccnc2ccccc12)c1ccccc1,–,55.5,32.3,> 100,82.7,66,37.7,50,36,39.5,37.4,54.4,–,–,–
O=C1C(c2ccccc2)=C(c2ccccc2)C(c2ccc(Sc3ccc(C4=C(c5ccccc5)C(=O)C(c5ccccc5)=C4c4ccccc4)cc3)cc2)=C1c1ccccc1,–,> 100,> 100,> 100,–,> 100,> 100,> 100,> 100,> 100,> 100,> 100,–,–,–
O=C(Cc1nc2ccc([N+](=O)[O-])cc2[nH]c1=O)C(=O)Nc1ccccc1[N+](=O)[O-],> 100,> 100,> 100,–,> 100,> 100,> 100,> 100,> 100,> 100,> 100,> 100,–,–,–
C/C(=N/O)c1sc(-c2nc(C)c(/C(C)=N\O)s2)nc1C,> 100,–,> 100,> 100,> 100,> 100,> 100,> 100,> 100,> 100,–,> 100,–,–,–
c1ccc2c(CNCCCCCCCCNCc3cccc4ccccc34)cccc2c1,–,2.8,2.52,3.5,3.32,30.9,3.31,9.92,3.05,3.38,3.24,3.45,–,–,–
